{
  "source": "paper PMC10622841",
  "about": "“Structural analysis of a bacterial UDP-sugar 2-epimerase reveals the active site architecture before and after catalysis” (The Journal of Biological Chemistry, 2023)",
  "key": {"[1]": {"target": "T1, T. thermophilus 2-epimerase (Thermus thermophilus, UniProt Q72KY0, D98N)", "T1 construct": "gene TT_C0285; full length, recombinant in E. coli Rosetta2(DE3); tag-free (rTEV-cut N-terminal His tag); homodimer, 82 kDa by gel filtration", "T1 sequence (Q72KY0 entry or part of it D98N)": "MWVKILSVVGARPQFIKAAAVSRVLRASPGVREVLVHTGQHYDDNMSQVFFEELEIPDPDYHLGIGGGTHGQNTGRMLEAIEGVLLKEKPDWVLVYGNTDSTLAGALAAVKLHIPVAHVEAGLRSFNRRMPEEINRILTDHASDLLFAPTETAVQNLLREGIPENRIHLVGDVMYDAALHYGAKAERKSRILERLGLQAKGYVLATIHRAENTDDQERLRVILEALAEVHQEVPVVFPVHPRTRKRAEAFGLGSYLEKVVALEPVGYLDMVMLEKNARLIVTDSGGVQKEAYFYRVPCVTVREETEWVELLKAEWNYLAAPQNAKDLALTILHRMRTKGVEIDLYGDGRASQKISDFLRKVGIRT", "assay": "X-ray crystallography", "assay_type": "binding", "settings": "active site; pH 6.0-9.0; C- or N-terminal His tag"}, "[2]": {"target": "T2, T. thermophilus 2-epimerase (Thermus thermophilus, UniProt Q72KY0)", "T2 construct": "gene TT_C0285; full length, recombinant in E. coli Rosetta2(DE3); tag-free (rTEV-cut N-terminal His tag); homodimer, 82 kDa by gel filtration", "T2 sequence (Q72KY0 1-365)": "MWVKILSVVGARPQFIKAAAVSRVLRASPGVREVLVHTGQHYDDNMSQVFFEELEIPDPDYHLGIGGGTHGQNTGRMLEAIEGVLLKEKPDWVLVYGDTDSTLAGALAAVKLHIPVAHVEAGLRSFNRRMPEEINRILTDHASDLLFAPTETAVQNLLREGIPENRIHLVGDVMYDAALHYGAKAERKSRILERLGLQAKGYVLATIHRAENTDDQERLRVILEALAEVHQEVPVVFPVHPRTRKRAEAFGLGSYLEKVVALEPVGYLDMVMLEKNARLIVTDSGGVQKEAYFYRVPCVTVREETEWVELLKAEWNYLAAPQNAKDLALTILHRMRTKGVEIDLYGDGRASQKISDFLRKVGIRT", "assay": "discontinuous anion-exchange HPLC assay", "assay_type": "biochemical", "settings": "allosteric activator; substrate UDP-GlcNAc3NAcA, pH 8.0, 37 °C, 44 μM enzyme"}, "[3]": {"target": "T1, T. thermophilus 2-epimerase", "assay": "X-ray crystallography; HPLC and mass spectrometry of copurified ligand", "assay_type": "binding", "settings": "with UDP-GlcNAc3NAcA in the active site, pH 6.0-9.0"}, "[4]": {"target": "T2, T. thermophilus 2-epimerase", "assay": "X-ray crystallography", "assay_type": "binding", "settings": "active site; formed from UDP-GlcNAc3NAcA during crystallization; pH 5.0 and 9.0; C-terminal His tag"}, "[5]": {"target": "T. thermophilus 2-epimerase, WT enzyme, tag-free (Thermus thermophilus HB27)", "assay": "SEC; gel-filtration chromatography against standards (beta-amylase, acetyl CoA synthase, carbonic anhydrase, cytochrome c); conditions not given"}},
  "data": [
    {"compound": "CC(=O)N[C@H]1[C@@H](OP(=O)(O)OP(=O)(O)OC[C@H]2O[C@@H](n3ccc(=O)[nH]c3=O)[C@H](O)[C@@H]2O)O[C@H](C(=O)O)[C@@H](O)[C@@H]1NC(C)=O", "note": "[UDP-GlcNAc3NAcA]", "values": [
      {"measurement": "X-ray crystallography", "setting": "[1]", "result": "each subunit of the dimer contained both UDP-GlcNAc3NAcA in the active site and UDP-GlcNAc"}
    ]},
    {"compound": "CC(=O)N[C@H]1[C@@H](OP(=O)(O)OP(=O)(O)OC[C@H]2O[C@@H](n3ccc(=O)[nH]c3=O)[C@H](O)[C@@H]2O)O[C@H](CO)[C@@H](O)[C@@H]1O", "note": "[UDP-GlcNAc]", "values": [
      {"measurement": "discontinuous anion-exchange HPLC assay", "setting": "[2]", "result": "the addition of UDP-GlcNAc was required for the reactions to proceed"},
      {"measurement": "X-ray crystallography; HPLC and mass spectrometry of copurified ligand", "setting": "[3]; allosteric pocket", "result": "UDP-GlcNAc3NAcA in the active site and UDP-GlcNAc in the auxiliary binding pocket"}
    ]},
    {"compound": "CC(=O)N[C@@H]1[C@@H](OP(=O)(O)OP(=O)(O)OC[C@H]2O[C@@H](n3ccc(=O)[nH]c3=O)[C@H](O)[C@@H]2O)O[C@H](C(=O)O)[C@@H](O)[C@@H]1NC(C)=O", "note": "[UDP-ManNAc3NAcA]", "values": [
      {"measurement": "X-ray crystallography", "setting": "[4]", "result": "the product, namely UDP-ManNAc3NAcA, was observed in each subunit"}
    ]},
    {"compound": "O=c1ccn([C@@H]2O[C@H](COP(=O)(O)OP(=O)(O)O)[C@@H](O)[C@H]2O)c(=O)[nH]1", "note": "[UDP]", "values": [
      {"measurement": "X-ray crystallography; HPLC and mass spectrometry of copurified ligand", "setting": "[3]; allosteric (auxiliary) pocket", "result": "UDP-GlcNAc3NAcA was bound in the active site and UDP in the auxiliary binding pocket"}
    ]},
    {"compound": "T. thermophilus 2-epimerase, WT enzyme, tag-free", "values": [
      {"measurement": "stoichiometry N", "setting": "[5]", "result": 2}
    ]}
  ]
}
